The values that follow come from US12486278B2, “MASP-2 inhibitors and methods of use” (Omeros Corporation, priority 2019, dated 2025).

Counter-ions that a name gives are not always drawn. Where only a bound is given, the exact number is not on record here.

This assay deals with T1, MASP-2 (CCP1-CCP2-SP) (Homo sapiens, UniProt O00187).
T1 construct: 15 μL of Enzyme MASP-2 (CCP1-CCP2-SP) in Assay Buffer
T1 sequence (O00187 445-686 limits assumed): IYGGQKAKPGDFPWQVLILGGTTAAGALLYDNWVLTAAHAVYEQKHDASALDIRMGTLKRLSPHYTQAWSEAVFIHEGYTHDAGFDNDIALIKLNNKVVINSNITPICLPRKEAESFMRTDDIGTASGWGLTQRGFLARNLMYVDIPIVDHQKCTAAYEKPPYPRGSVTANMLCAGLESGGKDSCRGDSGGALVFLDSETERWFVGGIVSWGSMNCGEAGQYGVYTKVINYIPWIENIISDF
T1 sequence (O00187 298-444 partner limits assumed): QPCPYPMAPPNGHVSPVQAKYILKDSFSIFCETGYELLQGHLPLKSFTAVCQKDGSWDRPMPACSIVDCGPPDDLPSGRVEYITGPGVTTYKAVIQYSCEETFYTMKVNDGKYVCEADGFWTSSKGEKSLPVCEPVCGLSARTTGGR
Nature of the assay: Enzymatic Assay for MASP-2 (fluorogenic substrate). The format is biochemical. The following applies: fluorogenic substrate based on C2 cleavage site; room temperature, 20 min; 20 mM HEPES pH 7.4, 140 mM NaCl, 0.1% Tween 20. As for the experimental part:
The MASP-2 assay utilizes a fluorogenic substrate, based on the cleavage site for its natural substrate C2. The assay is run at room temperature in an assay buffer containing 20 mM HEPES, pH 7.4, 140 mM NaCl and 0.1% Tween 20. Assay parameters are adjusted such that the assay is linear with respect to time, enzyme, and substrate concentrations. Under these optimized assays conditions, IC50 values are equivalent to Ki values, except in a few cases of “tight binding” inhibitors. Cases of “tight binding” or possible “slow binding” inhibitors are handled by the methods described in Copeland R. A. (2013) Evaluation of Enzyme Inhibitors in Drug Discovery. 2nd Ed., John Wiley and Sons, Inc., Chapters 5-7.
The MASP-2 assay protocol is carried out as follows. Test compounds are serially diluted in DMSO and then 100 nL of each dilution is transferred to the assay plate(s). 10 μL of Assay Buffer is added, followed by 15 μL of Enzyme MASP-2 (CCP1-CCP2-SP) in Assay Buffer. 15 μL of Substrate in Assay Buffer is then added and mixed to start the reactions. After 20 min at room temperature, 15 μL of a stop solution (0.1 M acetic acid) is added, mixed and the plates are read on a SpectraMax i3x Microplate Reader and exported as Excel files. Each assay plate included a “no inhibitor” (DMSO Only) control, a “no enzyme” control and a reference inhibitor control. % Activity values=100*(average test comp. fluorescence−average “no enzyme” fluorescence)/(average “DMSO only” fluorescence−average “no enzyme” fluorescence). IC50 and Ki values are very reproducible, falling well within ±2-fold.
In turn, `C[C@H](NC(=O)[C@H]1C[C@H](c2ccccc2)CN1)C(=O)NCc1ccc(C(=N)N)cc1Cl` [Compound I-24, (2R,4R)—N—((S)-1-((4-Carbamimidoyl-2-Chlorobenzyl)Amino)-1-Oxopropan-2-Yl)-4-Phenylpyrrolidine-2-Carboxamide Di-Trifluoroacetate] registered a Ki below 500 nM. For `C[C@H](NC(=O)[C@H]1C[C@H](Cc2ccc(F)c(Cl)c2)CN1)C(=O)NCc1cnc2[nH]cc(Cl)c2c1` [Compound I-25, (2R,4S)—N—((S)-1-(((3-Chloro-1H-Pyrrolo[2,3-B]Pyridin-5-Yl)Methyl)Amino)-1-Oxopropan-2-Yl)-4-(3-Chloro-4-Fluorobenzyl)Pyrrolidine-2-Carboxamide Trifluoroacetate] the value was below 500 nM; for `CCN1C[C@@H](Cc2ccc(F)c(Cl)c2)C[C@@H]1C(=O)N[C@@H](C)C(=O)NCc1cnc2c(c1)c(Cl)cn2C` [Compound I-26, (2R,4S)—N—((S)-1-(((3-Chloro-1-Methyl-1H-Pyrrolo[2,3-B]Pyridin-5-Yl)Methyl)Amino)-1-Oxopropan-2-Yl)-4-(3-Chloro-4-Fluorobenzyl)-1-Ethylpyrrolidine-2-Carboxamide], below 500 nM; for `CCN1C[C@@H](Cc2ccc(F)c(Cl)c2)C[C@@H]1C(=O)N[C@@H](C)C(=O)NCc1cnc2[nH]cc(Cl)c2c1` [Compound I-27, (2R,4S)—N—((S)-1-(((3-Chloro-1H-Pyrrolo[2,3-B]Pyridin-5-Yl)Methyl)Amino)-1-Oxopropan-2-Yl)-4-(3-Chloro-4-Fluorobenzyl)-1-Ethylpyrrolidine-2-Carboxamide], below 500 nM. In turn, `CCOC(=O)CCN1CC[C@H](c2ccccc2)C[C@@H]1C(=O)N[C@@H](C)C(=O)NCc1cc(Cl)ccc1-n1cnnn1` [Compound I-28, Ethyl 3-((2R,4S)-2-(((S)-1-((5-Chloro-2-(1H-Tetrazol-1-Yl)Benzyl)Amino)-1-Oxopropan-2-Yl)Carbamoyl)-4-Phenylpiperidin-1-Yl)Propanoate] came in with a Ki of 2500 to 10000 nM. Turning to `C[C@H](NC(=O)[C@H]1C[C@@H](c2ccccc2)CCN1CCC(=O)O)C(=O)NCc1cc(Cl)ccc1-n1cnnn1` [Compound I-29, 3-((2R,4S)-2-(((S)-1-((5-Chloro-2-(1H-Tetrazol-1-Yl)Benzyl)Amino)-1-Oxopropan-2-Yl)Carbamoyl)-4-Phenylpiperidin-1-Yl)Propanoic Acid Trifluoroacetate], the Ki was 2500 to 10000 nM.

Turning to `C[C@H](NC(=O)[C@H]1C[C@H](Cc2ccccc2)CN1)C(=O)NCc1ccc2c(c1)ncn2C` [Compound I-30, (2R,4S)-4-Benzyl-N—((S)-1-(((1-Methyl-1H-Benzo[D]Imidazol-5-Yl)Methyl)Amino)-1-Oxopropan-2-Yl)Pyrrolidine-2-Carboxamide Trifluoroacetate], the inhibitory constant (Ki) was 2500 to 10000 nM. `CCOC(=O)CCN1CC[C@H](c2ccccc2)C[C@@H]1C(=O)N[C@@H](C)C(=O)NCc1ccc(C(=N)N)cc1` [Compound I-31, Ethyl 3-((2R,4S)-2-(((S)-1-((4-Carbamimidoylbenzyl)Amino)-1-Oxopropan-2-Yl)Carbamoyl)-4-Phenylpiperidin-1-Yl)Propanoate] came in with a Ki below 500 nM. As to `C[C@H](NC(=O)[C@H]1C[C@@H](c2ccccc2)CCN1CCC(=O)O)C(=O)NCc1ccc(C(=N)N)cc1` [Compound I-32, 3-((2R,4S)-2-(((S)-1-((4-Carbamimidoylbenzyl)Amino)-1-Oxopropan-2-Yl)Carbamoyl)-4-Phenylpiperidin-1-Yl)Propanoic Acid Di-Trifluoroacetate], the Ki was below 500 nM. For `Cc1nc(N)ccc1CNC(=O)[C@H](C)NC(=O)[C@H]1C[C@H](Cc2ccc(F)c(Cl)c2)CN1CC(=O)O` [Compound I-33, 2-((2R,4S)-2-(((S)-1-(((6-Amino-2-Methylpyridin-3-Yl)Methyl)Amino)-1-Oxopropan-2-Yl)Carbamoyl)-4-(3-Chloro-4-Fluorobenzyl)Pyrrolidin-1-Yl)Acetic Acid Di-Trifluoroacetate] the value was below 500 nM. For `C[C@H](NC(=O)[C@H]1C[C@@H](c2ccccc2)CCN1CC(=O)O)C(=O)NCc1ccc(C(=N)N)cc1` [Compound I-34, 2-((2R,4S)-2-(((S)-1-((4-Carbamimidoylbenzyl)Amino)-1-Oxopropan-2-Yl)Carbamoyl)-4-Phenylpiperidin-1-Yl)Acetic Acid Di-Trifluoroacetate] the value was below 500 nM; for `C[C@H](NC(=O)[C@H]1C[C@H](c2ccccc2)CN1CC(=O)O)C(=O)NCc1ccc(C(=N)N)cc1` [Compound I-35, 2-((2R,4R)-2-(((S)-1-((4-Carbamimidoylbenzyl)Amino)-1-Oxopropan-2-Yl)Carbamoyl)-4-Phenylpyrrolidin-1-Yl)Acetic Acid Di-Trifluoroacetate], below 500 nM. The figure for `C[C@H](NC(=O)[C@H]1C[C@H](Cc2ccc(F)c(Cl)c2)CN1CCC(=O)O)C(=O)NCc1ccc(C(=N)N)cc1` [Compound I-36, 3-((2R,4S)-2-(((S)-1-((4-Carbamimidoylbenzyl)Amino)-1-Oxopropan-2-Yl)Carbamoyl)-4-(3-Chloro-4-Fluorobenzyl)Pyrrolidin-1-Yl)Propanoic Acid Di-Trifluoroacetate] is below 500 nM.

With `C[C@H](NC(=O)[C@H]1C[C@H](Cc2ccc(F)cc2)CN1CCC(=O)O)C(=O)NCc1ccc(C(=N)N)cc1` [Compound I-37, 3-((2R,4S)-2-(((S)-1-((4-Carbamimidoylbenzyl)Amino)-1-Oxopropan-2-Yl)Carbamoyl)-4-(4-Fluorobenzyl)Pyrrolidin-1-Yl)Propanoic Acid Di-Trifluoroacetate], the Ki is below 500 nM. The figure for `C[C@H](NC(=O)[C@H]1C[C@@H](c2ccccc2)CCN1CCP(=O)(O)O)C(=O)NCc1ccc(C(=N)N)cc1` [Compound I-38, (2-((2R,4S)-2-(((S)-1-((4-Carbamimidoylbenzyl)Amino)-1-Oxopropan-2-Yl)Carbamoyl)-4-Phenylpiperidin-1-Yl)Ethyl)Phosphonic Acid Di-Trifluoroacetate] is below 500 nM.

In turn, `C[C@H](NC(=O)[C@H]1C[C@@H](c2ccccc2)CCN1CCP(=O)(O)O)C(=O)NCc1cc2cnccc2[nH]1` [Compound I-39, (2-((2R,4S)-2-(((S)-1-(((1H-Pyrrolo[3,2-C]Pyridin-2-Yl)Methyl)Amino)-1-Oxopropan-2-Yl)Carbamoyl)-4-Phenylpiperidin-1-Yl)Ethyl)Phosphonic Acid Di-Trifluoroacetate] returned an inhibitory constant (Ki) below 500 nM. The figure for `C[C@H](NC(=O)[C@H]1C[C@@H](c2ccccc2)CCN1CCCP(=O)(O)O)C(=O)NCc1cc(Cl)ccc1-n1cnnn1` [Compound I-40, (3-((2R,4S)-2-(((S)-1-((5-Chloro-2-(1H-Tetrazol-1-Yl)Benzyl)Amino)-1-Oxopropan-2-Yl)Carbamoyl)-4-Phenylpiperidin-1-Yl)Propyl)Phosphonic Acid Di-Trifluoroacetate] is 500 to 2500 nM. For `Cc1nc(N)ccc1CNC(=O)[C@H](C)NC(=O)[C@H]1C[C@@H](c2ccccc2)CCN1CCNS(C)(=O)=O` [Compound I-41, (2R,4S)—N—((S)-1-(((6-Amino-2-Methylpyridin-3-Yl)Methyl)Amino)-1-Oxopropan-2-Yl)-1-(2-(Methylsulfonamido)Ethyl)-4-Phenylpiperidine-2-Carboxamide Di-Trifluoroacetate] the value was 2500 to 10000 nM; for `C[C@H](NC(=O)[C@H]1C[C@@H](c2ccccc2)CCN1CCNS(C)(=O)=O)C(=O)NCc1cc2cnccc2[nH]1` [Compound I-42, (2R,4S)—N—((S)-1-(((1H-Pyrrolo[3,2-C]Pyridin-2-Yl)Methyl)Amino)-1-Oxopropan-2-Yl)-1-(2-(Methylsulfonamido)Ethyl)-4-Phenylpiperidine-2-Carboxamide Di-Trifluoroacetate], below 500 nM. For `C[C@H](NC(=O)[C@H]1C[C@@H](c2ccccc2)CCN1CCNS(C)(=O)=O)C(=O)NCc1ccc(C(=N)N)cc1` [Compound I-43, (2R,4S)—N—((S)-1-((4-Carbamimidoylbenzyl)Amino)-1-Oxopropan-2-Yl)-1-(2-(Methylsulfonamido)Ethyl)-4-Phenylpiperidine-2-Carboxamide Di-Trifluoroacetate] the value was below 500 nM; for `Cc1nc(N)ccc1CNC(=O)[C@H](C)NC(=O)[C@H]1C[C@H](Cc2cccc(C3CC3)c2)CN1` [Compound I-44, (2R,4S)—N—((S)-1-(((6-Amino-2-Methylpyridin-3-Yl)Methyl)Amino)-1-Oxopropan-2-Yl)-4-(3-Cyclopropylbenzyl)Pyrrolidine-2-Carboxamide Di-Trifluoroacetate], below 500 nM.

With `[2H]C([2H])([2H])n1cc(Cl)c2cc(CNC(=O)[C@H](C)NC(=O)[C@H]3C[C@H](Cc4ccccc4)CN3)cnc21` [Compound I-45, (2R,4S)-4-Benzyl-N—((S)-1-(((3-Chloro-1-(Methyl-D3)-1H-Pyrrolo[2,3-B]Pyridin-5-Yl)Methyl)Amino)-1-Oxopropan-2-Yl)Pyrrolidine-2-Carboxamide Hydrochloride], the Ki was below 500 nM.
